The subject of data set [1] is Capsicum annuum. The data set can be described thus: Phytotoxicity in Phytophthora capsici zoospores suspension infected Capsicum annuum cv. Hanbyul (pepper) at first branch stage pre-exposed to compound spray on stems before fungal infection at 500 ug/mL under greenhouse conditions. Format: organism-based. The note with it: in vivo, other.
Data set [2] deals with Phytophthora capsici. Description: Antioomycete activity against Phytophthora capsici zoospores suspension infected in pepper plants (cv. Hanbyul) at first branch stage pre-exposed to compound spray on stems before fungal infection assessed as reduction in Phyophthora blight disease severity at 1 to 1000 ug/mL under greenhouse conditions. Format: functional, organism-based.

Data set [3] deals with Phytophthora capsici. The data set can be described thus: Antioomycete activity against Phytophthora capsici zoospores suspension infected in pepper plants (cv. Hanbyul) at first branch stage pre-exposed to compound spray on stems before fungal infection assessed as reduction in Phyophthora blight disease severity at 500 ug/mL under greenhouse conditions. The class given is functional, organism-based.

Data set [4] concerns Phytophthora capsici. Description: Antioomycete activity against Phytophthora capsici zoospores suspension infected in pepper plants (cv. Hanbyul) at first branch stage pre-exposed to compound spray on stems before fungal infection assessed as reduction in Phyophthora blight disease severity at 100 ug/mL under greenhouse conditions. The class given is functional, organism-based.

Active and inactive are the calls of the source. No cut-off for these calls is given here.

In the case of `CN[C@@H]1C[C@H]2O[C@@](C)([C@@H]1OC)n1c3ccccc3c3c4c(c5c6ccccc6n2c5c31)C(=O)NC4` [STAUROSPORINE], the Activity result in data set [1] was “Non-toxic”; in data set [2], “Dose-dependent effect”. The outcome in data set [3] was Active.

For `COCC(=O)N(c1c(C)cccc1C)C(C)C(=O)OC` (stereo not given), in data set [2], the Activity result is “Dose-dependent effect”. Moreover, in data set [4], the result was Active.

Source of the values: ChEMBL document CHEMBL3046630, “Isolation and antifungal and antioomycete activities of staurosporine from Streptomyces roseoflavus strain LS-A24” (J Agric Food Chem, 2006).
